The target of one data set is TGK (Thermococcus gorgonarius, UniProt P56689, A485L/D141A/E143A/E664K/V93Q/Y409G). The note with it: ATP incorporation from an RNA primer; cited from earlier work.
The next data set has as its target T1, 2M (Thermococcus gorgonarius, UniProt P56689, A485L/D141A/E143A/E664K/F545L/I521L/K592A/T541G/V93Q/Y409G).
T1 construct: made in house; host or cells: E. coli BL21 CodonPlus-RIL
In words: Steady-state kinetics of single nucleotide incorporation by 2M. It is filed as biochemical. The settings on record: single nucleotide incorporation from 2′OMe-RNA primer. The procedure:
Steady-state kinetic parameters for NTP incorporation by 2M were determined by performing initial velocity measurements of single incorporations of either ATP, 2′OMe-ATP, or MOE-ATP. To generate the 2′OMe-RNA/DNA substrate, a 20-mer 2′OMe-RNA primer FD was 5′ 6-carboxyfluorescein end-labeled and annealed to the 52-mer DNA template BFL770 (Supplementary Table 1) at a 1:1.2 molar ratio. The reactions were performed at 50° C. in a mixture containing 1× Thermopol buffer, 6 mM Mg^2+, 100 nM 2′OMe-RNA/DNA substrate, and at NTP concentrations ranging from 0.5-250 μM. Enzyme concentrations and reaction times were selected to maintain initial velocity conditions. The 25 μL reactions were stopped by addition of a quenching solution containing 100 mM EDTA, 80% deionized formamide, 0.25 mg/ml bromophenol blue and 0.25 mg/ml xylene cyanol. Moreover, less than 20% of the primers were extended as required for steady-state conditions.
Product and substrate were separated on a 22% denaturing (8 M urea) polyacrylamide gel. The resulting bands were quantified using a Cytiva Typhoon RGB imager in fluorescence mode. Steady-state kinetic parameters (KM, kcat) were determined by fitting the data to the Michaelis-Menten equation. The data are the means and standard error from three independent experiments.

A short description of data set [1]: 2′OMezyme serum stability. It is filed as in vitro ADME. The settings on record: 37° C., 120 h. On the procedure:
PAGE-purified 2′OMezyme “R15/5-K” and DNAzyme “1023_KRasC” were annealed in water as described above, then incubated (at 5 μM) at 37° C. in 95% human serum (MilliporeSigma, Germany). Full-length catalyst remaining was quantified on Urea-PAGE gels stained with SYBR Gold (ThermoFisher Scientific, USA).

The test system of data set [2] is ‘wild type’ (wt) KRAS RNA. The experiment in a line: 2′OMezyme RNA cleavage in trans, wild type KRAS substrate. It is filed as biochemical, human. The note with it: differs from G12D substrate by one nucleotide (G35). On the procedure: (§1) RNA cleavage assays were performed in trans using PAGE-purified 2′OMezymes and RNA substrates, annealed as described above and incubated at 37° C. in 2′OMezyme selection buffer (30 mM EPPS pH 7.4, 150 mM KCl, 1 mM MgCl2), or 30 mM EPP pH 8.5, 150 mM KCl, 25 mM MgCl2, supplemented with RNasin ribonuclease inhibitor (Promega, USA). In Mg^2+ titration experiments, 2′OMezyme selection buffer was supplemented with additional magnesium chloride (MgCl2); in pH titration experiments, 150 mM KCl, 1 mM MgCl2 plus 50 mM buffer as follows was used: […] (pH 5.0-6.0), EPPS (pH 6.5-8.75), CHES (pH 9.0-12.0). For magnesium free reactions, 30 mM EPPS pH 7.4, 150 mM KCl, 5 mM EDTA was used.

For the next data set, the system named is Sub_KRas_12 [G12D] RNA. In words: 2′OMezyme RNA cleavage in trans, KRAS G12D substrate. The format is biochemical, human. On the procedure:
as §1
Pseudo first-order reaction rates (kobs) under single-turnover pre-steady-state (Km/kcat) conditions were determined from three independent reactions with (separately annealed) catalyst at 5 μM and substrate at 1 μM, as described previously^8, fit using Prism 9 (GraphPad Software, USA). For multiple turnover reactions, 1 μM substrate was reacted with 10 nM 2′OMezyme at 37° C. in 2′OMezyme selection buffer.

The test system of data set [3] is 2.1 kb KRAS transcript (Sub_KRas_ORF). The experiment in a line: 2′OMezyme cleavage of long KRAS transcripts. It is filed as biochemical, human. The settings on record: 37° C., pH 7.4, 1 mM Mg^2+, 65 h. The procedure: Human cDNA clones for KRAS (transcript variant b, accession no. NM_004985) and CTNNB1 (transcript variant 1, accession no. NM_001904) in plasmids pCMV6-XL6 (SP6 promoter) (cat. no. SC109374) and pCMV6-XL5 (T7 promoter) (cat. no. SC107921), respectively, were obtained from OriGene, USA. Site-directed mutagenesis was performed using a QuikChange II kit (Agilent Technologies, USA), according to the manufacturer's protocol; KRAS mutations G12D (c.35G>A) and G13D ([…]), and CTNNB1 mutation S33Y (c.98C>A) were introduced using primer sets shown in Supplementary Table 2 (“Quik_KRAS_G12D_Fw/Rev”, “Quik_KRAS_G13D_Fw/Rev” or “Quik_CTNNB_G12D_Fw/Rev”) and resulting plasmids cloned and verified by Sanger sequencing (Source Biosciences, UK). Long RNA substrates equivalent to full KRAS and CTNNB1 mRNA transcripts bearing 5′ fluorescein (“Sub_KRas_ORF” and “Sub_CTNNB1_ORF”, respectively) were prepared using HiScribe T7 and SP6 RNA synthesis kits (NEB, USA), according to the manufacturer's protocol, with a 4:1 ratio of 5′-Fluorescein-ApG dinucleotide (IBA Life Sciences, Germany) to GTP, using template plasmids linearised using XmaI (NEB, USA). Reactions were subsequently treated with TURBO DNase (Invitrogen/Thermo Fisher Scientific, USA) and RNA transcripts purified using RNeasy mini kits (Qiagen, Germany). […]

In data set [4] the target is T2, VEGF165 (Homo sapiens, UniProt P15692-4 P15692-4:27-191). The experiment in a line: SPR; overall mean +/-88; PBS + 0.1% Tween20, 20 C; double-exponential fit. The note with it: tags: biotinylated, Bio-Techne, captured on Neutravidin chip; chain copies: 2. The procedure:
(§2) 2′OMe/MOE-RNA aptamers were synthesized from RNA primer Prim1 and 3′-biotinylated DNA template Temp_ARC224 (Supplementary Table 1) as described in section “Synthesis of 2′OMezymes for characterization” using 2′OMe/MOE-NTPs. 2′OMe/MOE-RNA aptamers were annealed at 1-10 μM in nuclease-free water by heating to 95° C. for 5 min and equilibrating at RT for 10 min. They were then diluted and analysed in PBS+0.1% (v/v) Tween20 (PBS-Tw). Surface Plasmon Resonance (SPR) measurements were made using a BIAcore 2000 instrument (GE Life Sciences, UK) at a flow rate of 20 μLmin⁻¹ at 20° C. CM4 sensor chip (GE Life Sciences, UK) surfaces were coated with Neutravidin (Pierce 31000, ThermoFisher Scientific, USA) surfaces (˜8000 RU per flow cell) using an amine coupling kit (GE Life Sciences, UK) and flowing in 5 mM NaOAc (sodium acetate), pH 5.5. Chips were equilibrated in PBS Tw and left to flow overnight until signal drift had settled. ˜2000 RU biotinylated human VEGF165 (Bio-Techne, USA) was captured (except for the reference cell) before blocking with excess free biotin. 50 μL aptamer samples at a series of concentrations (500 nM, 250 nM, 125 nM, 62.5 nM, 31.3 nM, 15.6 nM, 7.8 nM, 3.9 nM) were injected for 150 s and dissociation was recorded for 600 s, in PBS-Tw. Single injections of aptamers outside of the concentration series were performed at 100 nM (50 μL) in PBS-Tw. […]
(SPR reads the build-up and loss of mass on a sensor chip optically.)

Data set [5] deals with T2, VEGF165. The experiment in a line: SPR; overall mean +/-16; PBS + 0.1% Tween20, 20 C; double-exponential fit. The note with it: tags: biotinylated, Bio-Techne, captured on Neutravidin chip; chain copies: 2. On the procedure: as §2
Data set [6] relates to 901 bp DNA template (sfGFP under T7 promoter). In words: 2′OMe-RNA transcription reactions with RGVG-M6. It is filed as biochemical. The note with it: compared to 2M; dependent on high concentrations of Mn2+. The procedure:
DNA template for transcription reactions was created by PCR-amplifying a 901-bp region on a plasmid encoding sfGFP under a T7 promoter. The PCR used 0.5 μM forward primer “5T7.for” and 0.5 μM reverse primer “pCUN_Do.rev”; cycling conditions were 95° C. for 30 s, 30×[95° C. for 10 s, 69° C. for 30 s, 72° C. for 30 s], 72° C. for 2 min.
For very permissive conditions, reactions comprised 125 nM DNA template, 200 nM T7 RNAP WT or its variant RGVG-M613, 1.5 mM MnCl2, 7.5 mM each NTP or 1 mM each 2′OMe-NTP, 0.1 U yeast inorganic pyrophosphatase. In order to compare the yield of 2′OMe-RNA synthesis by 2M and RGVG-M6, reactions were run under equimolar nucleic acid input of 0.5 pmol primer (2M) and 0.5 pmol DNA template (50 nM, RGVG-M6), and 50 nM RGVG-M6 polymerase with a polymerase:template ratio of 1:1 as described in 13. Reactions were treated with Turbo DNase and Proteinase K followed by denaturing PAGE.

Data set [7] deals with T2, VEGF165. In words: SPR; overall mean +/-29; PBS + 0.1% Tween20, 20 C; double-exponential fit. The note with it: tags: biotinylated, Bio-Techne, captured on Neutravidin chip; chain copies: 2. On the procedure: as §2

As a reminder, the Km is the substrate concentration at which the rate is half of its maximum. The kcat is the maximal rate divided by the concentration of active sites. The term Kd denotes the equilibrium constant for the complex coming apart.

On to `Nc1ncnc2c1ncn2[C@@H]1O[C@H](COP(=O)(O)OP(=O)(O)OP(=O)(O)O)[C@@H](O)[C@H]1O` [ATP], for which the Km on TGK is 13.3 µM. Also, the “Vmax/kcat values for incorporation” value at 2M is given as “essentially identical”.

For “R15/5-K: RNA endonuclease 2′OMezyme (all 2′OMe-RNA) specific for KRAS RNA c.26 - 44, G12D allele (CCUACGCACGUGACCCAUGACGGACAGAGAAGGCAUGACAGACUGCUCCAA; all 2'-O-methyl, backbone not given here)”, the “degradation (or loss in activity) after incubation in human serum” value in data set [1] was “no significant degradation”. In data set [2], the “cleavage of wt KRAS RNA” value was “essentially no cleavage”. Further, the multiple-turnover catalysis result in the data set on Sub_KRas_12 [G12D] RNA (10 nM 2′OMezyme, 1 μM substrate) is “capable of multiple-turnover catalysis”. Further, the kcat in the data set on Sub_KRas_12 [G12D] RNA (1 mM Mg^2+, pH 7.4, 37° C., single turnover) worked out at 0.11 h⁻¹; in the data set on Sub_KRas_12 [G12D] RNA (5 mM EDTA, pH 7.4, 37° C. (absence of Mg^2+)) it was 0.001 h⁻¹; in the data set with Sub_KRas_12 [G12D] RNA (25 mM Mg^2+, pH 8.5, 37° C., single turnover, 5 μM 2′OMezyme, 1 μM substrate) it was 0.24 h⁻¹. The “reduction of single-turnover rate compared with optimal conditions” value in the data set on Sub_KRas_12 [G12D] RNA (1 mM Mg^2+, pH 7.4 vs 25 mM Mg^2+, pH 8.5) is given as “approximately 50%”. Also, the activity retained in the data set on Sub_KRas_12 [G12D] RNA (quasi-physiological low-Mg^2+ regime (0.5-1 mM Mg^2+)) was 70-80%. In addition, the “cleavage of wt KRAS transcript or G13D (c.38G>A) transcript” value in data set [3] is recorded as “virtually no cleavage”. The “cleavage of long structured KRAS transcript bearing G12D” value in data set [3] (G12D (c.35G>A)) is “able to invade and cleave”.

Consider CGATATGCAGTTTGAGAAGTCGCGCATTCG (XNA, 2'-OMe U, 2'-O-MOE A, C and G) [ARC224 2'OMe-U MOE-ACG], for which the dissociation constant Kd in the data set with VEGF165 [4] came to 92 nM.

Consider CGATATGCAGTTTGAGAAGTCGCGCATTCG (XNA, all 2'-OMe (A,C,G,U)) [ARC224 2'OMe], for which the dissociation constant (Kd) in the data set with VEGF165 [5] is 23 nM.

B1: RGVG-M6: T7 RNA polymerase variant (P266L, S430P, N433T, E593G, S633P, Y639V, V685A, H784G, F849I, F880Y) (protein, UniProt P00573 1-883, looked up, variant P266L S430P N433T E593G S633P Y639V V685A H784G F849I F880Y)
T7 RNA polymerase: MNTINIAKNDFSDIELAAIPFNTLADHYGERLAREQLALEHESYEMGEARFRKMFERQLKAGEVADNAAAKPLITTLLPKMIARINDWFEEVKAKRGKRPTAFQFLQEIKPEAVAYITIKTTLACLTSADNTTVQAVASAIGRAIEDEARFGRIRDLEAKHFKKNVEEQLNKRVGHVYKKAFMQVVEADMLSKGLLGGEAWSSWHKEDSIHVGVRCIEMLIESTGMVSLHRQNAGVVGQDSETIELAPEYAEAIATRAGALAGISLMFQPCVVPPKPWTGITGGGYWANGRRPLALVRTHSKKALMRYEDVYMPEVYKAINIAQNTAWKINKKVLAVANVITKWKHCPVEDIPAIEREELPMKPEDIDMNPEALTAWKRAAAAVYRKDKARKSRRISLEFMLEQANKFANHKAIWFPYNMDWRGRVYAVPMFTPQGNDMTKGLLTLAKGKPIGKEGYYWLKIHGANCAGVDKVPFPERIKFIEENHENIMACAKSPLENTWWAEQDSPFCFLAFCFEYAGVQHHGLSYNCSLPLAFDGSCSGIQHFSAMLRDEVGGRAVNLLPSETVQDIYGIVAKKVNEILQADAINGTDNGVVTVTDENTGEISEKVKLGTKALAGQWLAYGVTRSVTKRPVMTLAVGSKEFGFRQQVLEDTIQPAIDSGKGLMFTQPNQAAGYMAKLIWESASVTVVAAVEAMNWLKSAAKLLAAEVKDKKTGEILRKRCAVHWVTPDGFPVWQEYKKPIQTRLNLMFLGQFRLQPTINTNKDSEIDAHKQESGIAPNFVGSQDGSHLRKTVVWAHEKYGIESFALIHDSFGTIPADAANLFKAVRETMVDTYESCDVLADFYDQIADQLHESQLDKMPALPAKGNLNLRDILESDYAFA
On to B1, for which the “2′OMe-RNA synthesis activity (in words)” value in data set [6] was “modest”.

Turning to CGATATGCAGTTTGAGAAGTCGCGCATTCG (XNA, 2'-OMe G and U, 2'-O-MOE A and C) [ARC224 2'OMe-GU MOE-AC], in the data set with VEGF165 [7], the Kd came to 30 nM.

The values are drawn from patent US20250197820A1, “NUCLEIC ACID POLYMERASE AND ITS USE IN PRODUCING NON-DNA NUCLEOTIDE POLYMERS” (UNITED KINGDOM RESEARCH AND INNOVATION, priority 2021, published 2025).
